Source: patent US7906332B2, “Method of preparing basement membrane, method of constructing basement membrane specimen, reconstituted artificial tissue using the basement membrane specimen and process for producing the same” (Japan Science And Technology Agency, priority 2001, dated 2011)

Legend:
[1] = test system: type II alveolar epithelial cells; assay: Basement membrane formation by alveolar epithelial cells on collagen fiber (fib) with Matrigel or TGF-β (T2-fib-MG, T2-fib-TGFβ); assay type: cell-based, rat; conditions: fibrous collagen substratum, TGF-β in upper and lower wells (T2-fib-TGFβ)
Description: The present inventors made a study on a process to form a basement membrane structure just beneath the basal surface of epithelial cells on a fibrous collagen matrix by the coculture with fibroblasts-embedded collagen gel, and by the culture in the presence of TGF-β or Matrigel. […] However, it was also confirmed that type II alveolar epithelial cells were unable to constitute a basement membrane without the supply of, for example, a fibroblast, exogenous basement membrane components from Matrigel or a growth factor TGF-β, since the endogenous basement membrane components from type II alveolar epithelial cells are not enough for the cells to assemble a basement membrane structure effectively. […]

[2] = test system: alveolar epithelial cells; assay: Construction of a basement membrane according to the MMP inhibition method; assay type: cell-based; conditions: 2 weeks on fib, 1% fetal bovine serum, no basement membrane components added
Method: Alveolar epithelial cells were cultured on collagen fiber (fib) with the only addition of 1% fetal bovine serum and synthetic inhibitor of matrix metalloproteinase (MMP) and without the addition of basement membrane components for 2 weeks. As MMP inhibitor, GM6001 (Calbiochem) and MMP-2/MMP-9 inhibitor I (Calbiochem) were used. 1.1 μM of GM6001 and 310 μM of MMP-2/MMP-9 inhibitor I (2/9 inhibitor) were added respectively.

TGF-β
basement membrane formation by type II alveolar epithelial cells [1]: a basement membrane was formed

O=C(O)[C@@H](Cc1ccccc1)NS(=O)(=O)c1ccc(-c2ccccc2)cc1 [MMP-2/MMP-9 inhibitor I]
basement membrane structure formation beneath the cells ([2]; 310 μM): complete basement membrane structure (▴) was formed

CNC(=O)[C@H](Cc1c[nH]c2ccccc12)NC(=O)[C@@H](CC(=O)NO)CC(C)C [GM6001]
basement membrane structure formation beneath the cells ([2]; 1.1 μM): complete basement membrane structure (▴) was formed
